Laboratory results reported in US20250161399A1, “TARGETING SLC46A2-MEDIATED MUROPEPTIDE TRANSPORT TO TREAT PSORIASIS” (University of Massachusetts, priority 2021, published 2025).
Entries after “also recorded” stand apart in the source; their conditions may differ. Peptide text beside a SMILES is read from it. * marks the point of attachment. Cbz = O=C(OCc1ccccc1)*; CH2F = FC*

Tests used:
[1] = system: mouse skin (NOD1/NOD2 response); test: neutrophil recruitment to pinnae after intradermal injection; type: in vivo; details: for neutrophil recruitment response in Slc46a2-deficient mice compared to WT: Tri-DAP 25 μM, C12-iE-DAP 20 μM
Experimental: […] After 3 h, both ears were individually harvested, and stored in ice cold PBS on ice until further processing for flow cytometry staining.
Pinnae were cut into small pieces and incubated for 30 min at 37° C. in a solution of 1 mg/ml collagenase (Sigma) in DMEM media containing 10% FBS. Ice-cold FACS buffer (2% FBS in PBS) was added to skin samples to stop the reaction. Then samples were placed on 70 μm cell strainers and ground using a cell strainer pestle to create a single cell suspension. Cells were spun at 180 g for 5 min at 4° C. and resuspended in FACS buffer.
(§1) 1×10^6 cells were stained with F4/80-PE/Cy7 (1:200), CD45-alexaflour700 (1:200) and Gr1-PE (1:200) for 30 min on ice in the dark. Samples were washed three times with FACS buffer and analyzed with a Cytek Aurora cytometer. Results were analyzed with FlowJo software (Tree Star, USA).

[2] = system: HSE dermal fibroblasts (CXCL8); test: CXCL8 induction in Human Skin Equivalents (HSE) skin organoids; type: cell-based; details: concomitant treatment with iE-DAP
[3] = system: psoriasis-like inflammation on mouse pinnae; test: IMQ model of psoriasis-like dermatitis (ear thickness, H&E histology); type: in vivo
Experimental: Pinnae were harvested 3 h after DAP-muropeptide administration or 7 d after topical application of IMQ and fixed in PBS containing 10% formalin. Paraffin-embedded sections were cut at […], stained with H&E, and imaged by light microscopy.
The induction of psoriasis-like inflammation on mouse pinnae was done as previously described (60). In brief, mice were treated daily for up to 6 d with 5 mg 5% IMQ cream topically applied on one pinna, while the other pinnae were treated with a similar amount of Vaseline, as vehicle control. Ear thickness was measured daily using a digital caliper. The change in ear thickness over time was reported as the difference related to the first day of topical application. For the bacterial assisted psoriasis model, 5 mg 5% IMQ cream was topically applied on one pinna, while the contralateral pinna was treated with a similar amount of Vaseline for 3 days, and then 10^7 CFU of C. accolens, in 50% glycerol, was topically applied daily to both pinnae. Ear thickness was measured daily using a digital caliper. C. accolens, originally from ATCC, was provided by J. Kang and grown as described (61).

[4] = system: primary mouse keratinocytes; test: keratinocyte cell permeabilization assay (Sytox dye uptake, live cell imaging); type: cell-based; details: WT keratinocytes, 30 μM iE-DAP, 24 h; MTX increasing concentration, zVAD-fmk 10 μM, DMF 50 μM
Experimental: (§2) Adult (6-8 weeks) mouse keratinocytes were isolated from male or female animals using protocols described previously (57). In brief, tail skin was incubated in 1 mg/ml Dispase II (Roche) overnight at 4° C. The epidermis was physically removed from the dermis with tweezers following Dispase II treatment, subsequently digested with TrypLE (Thermo) for 20 min at room temperature, and keratinocytes were detached by vigorously shaking in EpiLife culture medium and filtered with a 70 μm strainer (Fisher scientific). Isolated cells were seeded at a density of 10^5 cells/cm^2 cultured with EpiLife (Gibco) in 12-well plates precoated with coating matrix (Gibco) and used between 3 and 5 days after isolation.
For cell permeabilization assays, 1×10^5 keratinocytes/well were seeded in a 96-well plate (Denville Scientific Inc.). After reaching 80% confluency, 30 μM iE-DAP was added to culture media with 1 nM Sytox red dye (Thermo) and 0.2 nM hoechst stain (Thermo). Plates were then cultured in a Cytation5 (BioTek) live imaging device and each well was imaged every 30 min for 24 hours. For analysis, Gen5 software were used to count the total number of Hoechst-stained nuclei and the total number of permeabilized cells were quantified as the number of Sytox positive nuclei. The Percentage of Sytox^+ cells was then calculated and plotted.

[5] = system: mouse peritoneum (NOD1/NOD2 response); test: neutrophil recruitment to the peritoneum after intraperitoneal injection; type: in vivo; details: 3 h, iE-DAP 30 μM, MDP 10 μM
Experimental: For peritoneal cell extraction, animals were euthanized and cells from peritoneal cavity were isolated by peritoneal lavage (58). Harvested cell suspensions were centrifuged at 300 g for 5 min at 4° C. and resuspended in FACS buffer.
as §1

[6] = system: primary mouse keratinocytes; test: lipid nanoparticle (NP) mediated iE-DAP/dye delivery into keratinocytes; type: cell-based; details: keratinocytes pretreated with 250 μM MTX, iE-DAP delivered by dye-loaded NP
Experimental: Briefly, a matrix of DOPC/DSPC/DOPG/cholesterol/DSPE-mPEG at 33.5/33.5/20/10/3 mol % was prepared in chloroform and dry lipid/cholesterol films were allowed to form. Films were rehydrated with iE-DAP (Invivogen) prepared in PBS at 1.2 mg/mL and these samples were vortexed for 30 sec every 10 min for 1 hr at 56° C. to complete this process. Following rehydration, samples were ultrasonicated in alternating 20 sec pulse/10 sec off cycles for 5 min at an amplitude of 20% to form iEDAP-encapsulated lipid-based NPs. Samples were dialyzed for 1 hr following ultrasonication. Dynamic light scattering (DLS) and zeta potential measurements using a Malvern Zetasizer were used to characterize NP size and surface charge, respectively. […] Quant-IT assay (Thermo Fisher Scientific) measurements were used to measure average iE-DAP encapsulation at 998.1 μg/mL and an average encapsulation efficiency of 57.1%. To visualize iE-DAP-encapsulated NPs, 0.1 mol % of the fluorescent lipid tracer dye 3,3′-dioctadecyloxacarbocyanine perchlorate (DiO) were added to the lipid/cholesterol films. Mouse keratinocytes were challenged iE-DAP loaded NPs, or control empty NPs, at 37° C. at 10 μg/ml final concentration (˜30 μM iE-DAP), and then monitored for Sytox uptake assay for 24 h, as described above. […]

[7] = system: primary mouse keratinocytes; test: cytokine ELISAs from primary keratinocyte culture media; type: cell-based
Experimental: as §2
For cytokine ELISAs, primary keratinocytes were either mock-treated or treated with 8 μM TCT or 30 μM iE-DAP for 24 h Culture medium was harvested and centrifuged at 500 g for 15 mins and analyzed using ELISA kits detecting CXCL1 (KC), IL-6, TNF-α, IL-1α and IL-1β (R&D systems) following the manufacturer's protocols. In brief, 96-well ELISA plates were coated with capture antibody overnight at room temperature. The next day, the plate was washed three times with wash buffer and incubated with harvested media (100 μl) for 2 h followed by three washes and then probed with biotin-labelled detection antibody for 2 h. After three washes with wash buffer, plates were incubated with HRP-streptavidin for 20 min at room temperature (RT), developed with TMB (3,3′,5,5″-tetramethylbenzidine) substrate for 20 min at RT, and then stopped with IN sulfuric acid. Plate was analyzed at 450 nm with wavelength correction at 540 nm.

Slc46a2 = biological target: T1, Slc46a2 (Mus musculus, UniProt Q8CA03); test: click-muropeptide uptake into keratinocytes (CalFluor 488 Azide, confocal imaging and lysate fluorescence); type: cell-based; details: WT or Nod1−/− keratinocytes, 30 μM click-iE-DAP; MTX 250 μM or unlabeled iE-DAP 30 μM
T1 construct: primary mouse keratinocytes, which express Slc46a2 and Nod1; endogenous in cells; host or cells: primary mouse epidermal keratinocytes (WT or Nod1-/-; Slc46a2-/- cells served as the negative control)
T1 sequence (Q8CA03 1-479): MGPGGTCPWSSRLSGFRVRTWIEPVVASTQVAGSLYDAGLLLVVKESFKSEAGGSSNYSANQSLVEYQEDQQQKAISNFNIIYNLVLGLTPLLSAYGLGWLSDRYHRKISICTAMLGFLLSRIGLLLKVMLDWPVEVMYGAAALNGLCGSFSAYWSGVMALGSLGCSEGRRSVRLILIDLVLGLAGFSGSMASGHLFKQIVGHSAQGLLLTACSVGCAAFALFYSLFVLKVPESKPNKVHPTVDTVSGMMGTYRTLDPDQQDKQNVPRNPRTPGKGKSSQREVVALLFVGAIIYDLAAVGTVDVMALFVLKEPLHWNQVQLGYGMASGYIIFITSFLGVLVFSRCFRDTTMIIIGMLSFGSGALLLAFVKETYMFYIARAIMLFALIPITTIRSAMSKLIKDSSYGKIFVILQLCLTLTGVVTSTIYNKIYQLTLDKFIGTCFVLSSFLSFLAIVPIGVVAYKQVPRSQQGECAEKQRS
Experimental: For visualization, mouse keratinocytes were challenged with click-iE-DAP (30 μM) or click-MDP (20 μM) 37° C. for 30-60 min, cells washed 2× with 1×PBS to remove access of click-muropeptides and fixed with 4% paraformaldehyde in PBS at RT for 10 min. Cells were permeabilized with 1% Triton-X in PBS for 10 min at RT and blocked with 1% BSA in PBS. These permeabilized cells were then incubated in click-reaction conditions (250 μM CuSO4, 35 μM BTAA, 60 μM sodium ascorbate) with 2.5 μM CalFluor 488 Azide at RT for 30 mins. Cells were then washed and mounted on slides, with DAPI containing mounting media. Slides were imaged with a Leica SP8 confocal microscope.

[8] = system: primary dermal fibroblasts; test: CXCL1 (KC) ELISA from primary dermal fibroblasts; type: cell-based, mouse; details: iE-DAP 30 μM or IL-1α 10 ng/ml, 24 hrs
Experimental: Mouse dermal fibroblasts were isolated as described herein. In brief, mouse pinnae were incubated on a table shaker (200 rpm) in a collagenase D-pronase solution [2.5 mg/ml collagenase-D (Sigma), 20 mg/ml pronase (Sigma) diluted in 1M Tris, pH 8.0 and containing 1 μM EDTA (Sigma)] for 90 min at 37° C. Fibroblasts were then isolated by pressing digested skin through a 70 μm cell strainer, and cells were collected and cultured in RPMI 1640 medium with 10% FBS, 50 μM 2-mercaptoethanol, 100 μM asparagine, 2 mM glutamine, 1% penicillin-streptomycin for 2-4 passages before stimulating with immune elicitors, and/or harvesting media or cells.
For cytokine ELISAs from dermal fibroblast, cells were challenged with IL-1α (10 ng/ml) or 30 μM iE-DAP for 24 h, and media was collected and processed for ELISA as described above.

[9] = intradermal, 3 h, TCT 8 μM, iE-DAP 30 μM, MDP 10 μM

## CCCCCCCCCCCC(=O)N[C@H](CCC(=O)NC(CCCC(N)C(=O)O)C(=O)O)C(=O)O (stereo partly shown) [C12-iE-DAP]
[1]; [9]
  neutrophil recruitment response in Slc46a2-deficient mice compared to WT: not significantly changed

## tracheal cytotoxin [TCT]
[1]; intradermal 10 μl, TCT 8 μM, LPS 10 μg/ml, iE-DAP 30 μM, 1 to 24 h
  neutrophil / leukocyte recruitment to the skin in WT mice: rapid and robust; also recorded: robust and rapid
[1]; intradermal TCT, monitored between 1 and 24 h
  time of peak leukocyte recruitment: 3 h
[1]; [9]
  neutrophil recruitment response in Slc46a2-deficient mice compared to WT: significantly reduced

## IL-1Ra: recombinant IL-1R antagonist
[2]
  effect on iE-DAP induced CXCL8 in HSE dermis: prevented
[2]; listed as IL-IRA
  effect on iE-DAP induced CXCL8 in HSE dermis: blocked

## C[C@H](N)C(=O)N[C@H](CCC(=O)NC(CCCC(N)C(=O)O)C(=O)O)C(=O)O (stereo partly shown) [Tri-DAP]
[1]; [9]
  neutrophil recruitment response in Slc46a2-deficient mice compared to WT: significantly reduced

## CC(C)Cn1cnc2c(N)nc3ccccc3c21 [IMQ, imiquimod]
[3]; 7-day course of topical IMQ
  inflammation in Slc46a2- and Nod1-deficient mice: markedly resistant
[3]; 7-day course of topical IMQ, WT mice
  inflammation in WT mice (ear thickness, H&E histology): expected psoriatic-like inflammation

## COC(=O)C[C@H](NC(=O)[C@H](C)NC(=O)[C@@H](NC(=O)OCc1ccccc1)C(C)C)C(=O)CF [zVAD-FMK] (Cbz-Val-Ala-Asp(OMe)-CH2F)
[4]
  inhibition of DAP-muropeptide triggered keratinocyte permeabilization (Sytox uptake): prevented

## CC(=O)N[C@H]1C(O)O[C@H](CO)[C@@H](O)[C@@H]1O[C@H](C)C(=O)N[C@@H](C)C(=O)N[C@H](CCC(=O)O)C(N)=O (mixture of isomers) [MDP, muramyl dipeptide]
[5]
  neutrophil recruitment response in Slc46a2−/− mice: responded like wild-type
  neutrophil recruitment response in Slc46a3−/− mice: failing to respond
[1]; intradermal, 3 h, MDP 10 μM
  neutrophil recruitment response in Slc46a3−/− mice: significantly defective
[1]; [9]
  neutrophil recruitment response in Slc46a2-deficient mice compared to WT: responded normally

## CN(Cc1cnc2nc(N)nc(N)c2n1)c1ccc(C(=O)N[C@@H](CCC(=O)O)C(=O)O)cc1 [MTX, methotrexate]
[6]
  effect on NP-mediated iE-DAP / dye delivery: failed to interfere; also recorded: did not affect
[3]; Slc46a2−/− and Nod1−/− mice, IMQ daily with topical 50 μl of 250 μM MTX
  residual inflammation in Slc46a2−/− and Nod1−/− skin: no observable effect; also recorded: minimalistic effect
[3]; WT mice, IMQ daily with topical 50 μl of 250 μM MTX
  psoriasis like inflammation in WT skin: reduced; also recorded: less inflamed
[7]; 250 μM MTX along with 30 μM iE DAP, 24 hours
  IL-1α release in iE-DAP treated WT keratinocytes: prevented
[7]; keratinocytes, iE-DAP, increasing concentrations of MTX, dose dependent
  inhibition of DAP-muropeptide triggered IL-1α release: inhibited
Slc46a2
  effect on cytosolic accumulation / cellular uptake of click-iE-DAP: blocked; also recorded: interfered
[4]
  inhibition of DAP-muropeptide triggered keratinocyte permeabilization (Sytox uptake): inhibited

B1: IL-1α: cytokine used to challenge dermal fibroblasts (10 ng/ml) (protein, UniProt P01583 113-271, looked up)
Interleukin-1 alpha: SAPFSFLSNVKYNFMRIIKYEFILNDALNQSIIRANDQYLTAAALHNLDEAVKFDMGAYKSSKDDAKITVILRISKTQLYVTAQDEDQPVLLKEMPEIPKTITGSETNLLFFWETHGTKNYFTSVAHPNLFIATKQDYWVCLAGGPPSITDFQILENQA
[8]
  CXCL1 (KC) response of primary dermal fibroblasts: induced
